Assay results as given in US9382230B2, “Methods and compositions for modulating Ire1, SRC and ABL activity” (The Regents of the University of California, priority 2008, dated 2016).

What was measured:
Ire1KR32 = biological target: T1, Ire1KR32 (Saccharomyces cerevisiae, UniProt P32361); assay: RNase cleavage assay with Ire1 cytosolic constructs (Ire1KR32), co-factors and kinase inhibitors; format: biochemical
T1 construct: Overview of the Ire1 constructs; GST (N); made in house; host or cells: E. coli BL21 CodonPlus (RIPL)
T1 sequence (P32361 with tags, fused parts or gaps): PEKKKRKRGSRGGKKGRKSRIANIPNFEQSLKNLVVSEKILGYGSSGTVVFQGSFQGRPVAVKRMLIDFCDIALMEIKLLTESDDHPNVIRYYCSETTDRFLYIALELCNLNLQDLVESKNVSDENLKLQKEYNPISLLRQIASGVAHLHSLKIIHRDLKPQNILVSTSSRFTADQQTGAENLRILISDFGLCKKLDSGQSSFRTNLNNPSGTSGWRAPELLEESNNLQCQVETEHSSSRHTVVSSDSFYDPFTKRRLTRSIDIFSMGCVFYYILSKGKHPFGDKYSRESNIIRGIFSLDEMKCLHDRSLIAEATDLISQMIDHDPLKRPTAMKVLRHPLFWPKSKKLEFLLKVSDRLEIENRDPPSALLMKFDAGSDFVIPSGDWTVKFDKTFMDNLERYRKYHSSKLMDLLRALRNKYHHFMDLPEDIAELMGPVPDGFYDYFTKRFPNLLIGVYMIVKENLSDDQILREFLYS
Procedure: (§1) RNA cleavage reactions were conducted at 30° C. in buffer containing 20 mM HEPES (pH 7.5), 70 mM NaCl, 2 mM ADP (pH 7.0), 2 mM Mg(OAc)2, 5 mM DTT, 5% glycerol, less than 1 nM ^32p-labeled RNA substrate, and 3 nM-20 μM Ire1. Reaction solutions and buffers were designed using Biochem Lab Solutions 3.5. Reactions were prepared such that 1 μl of RNA was added to 9 μl of pre-warmed reaction mixture containing all components except RNA. Typically, 3-10 minute time courses were collected starting from 5 seconds for the first time point. At time intervals, 1 μl of solution was withdrawn from each reaction and mixed wish 6 μl stop solution containing 10 M urea, 0.1% SDS, 0.1 mM EDTA, 0.05% xylene cyanol, and 0.05% bromophenol blue. The samples were separated by a denaturing 10% PAGE and exposed on a phosphor storage screen. The screens were scanned on a Storm or a Typhoon instrument and quantified using ImageQuant 5.0 or GelQuant.NET 1.4 programs. The data were plotted and fit in SigmaPlot 6.0.
Variants of the cytosolic portion of Ire1 that contain the kinase and the RNase domains (Ire1KR) and Ire1KR extended by 24 (Ire1KR24) or 32 (Ire1KR32) amino acids towards the N-terminus (FIG. 1A, FIG. 1C, FIG. 7) were prepared. These additional amino acid extensions are part of a ˜100 amino acid-long linker domain that tethers the kinase/RNase domains to the transmembrane domain. All three constructs cleaved site-specifically 5′-32p-labeled stem-loop oligoribonucleotides 14 derived from the XBP1 mRNA (FIG. 1B, FIG. 8). […] No ADP.Mg co-factor was required for the cooperative activation of the RNase.
Ire1KR32 was co-crystallized with inhibitors that were designed to target CDK2 and EGFR kinases. Certain kinase inhibitors fully activated the RNase function of Ire1 (FIG. 3A). This is the first example of wild-type Ire1 activation by synthetic compounds.
Crystals obtained with the inhibitor APY29 allowed the structure determination of the Ire1KR32-APY29 complex at 3.9 Å resolution. A well-resolved density for the inhibitor molecule was found in the ATP binding pocket of the Ire1 kinase domain (FIG. 3B). APY29 forms an extensive hydrogen-bonding network with the protein backbone formed by E746, L747, and C748 (FIG. 3C). Hydrogen bonds are likely to also form with two side chains at the active site, N751, and D828. […] Manual fitting of sunitinib guided by know structures of kinase.inhibitor complexes (e.g., PDB IDs 2G9X and 2F4J) predicts that the compound fills the nucleobase site, but not the sugar and the phosphate sub-sites. […] AIN54 could not be readily fit to the ATP pocket due to steric clashes arising partly because of the unusual position of beta strand β1 that covers the nucleotide-binding pocket of the Ire1 kinase.
This structural difference provides an excellent tool to test the role of magnesium in the RNase activity of Ire1. Accordingly, the effect of EDTA on the RNase activity of Ire1KR32 was examined.

yIre1 = biological target: T2, yIre1 (Saccharomyces cerevisiae, UniProt P32361); assay: RNA cleavage-based yIre1 activation assay; format: biochemical, yeast; parameters: unit not given here; settings: 3 μM yIre1, stem loop RNA, 15 μM effector
T2 construct: GST (N); made in house; host or cells: E. coli BL21 CodonPlus (RIPL)
T2 sequence (P32361 with tags, fused parts or gaps limits assumed): T1 sequence (P32361 with tags, fused parts or gaps)
Procedure: The RNase Cleavage Assay.
as §1
RNA cleavage can be used to assess yIre1 activation as shown by FIG. 20 and the table below (3 μM yIre1, stem loop RNA, 15 μM effector): […]

[1] = system: Xbp-1 mRNA splicing (UPR activation through Ire1) in HEK293 cells; assay: XBP-1 mRNA splicing by RT-PCR in HEK293 cells (UPR); format: cell-based, mammalian; settings: for % splicing mRNA XBP-I Average: Hek293 cells treated for 4 hrs, RT-PCR; for in vivo activation of Ire1: summary statement
Procedure: The effect of tunicamycin, SU11248, DJM2005, APY24, and APY29 on Ire1 activity was tested in mammalian cells using HEK293 cells as a model system. Cells were treated according to the methods described in Lin J H et al., Science 318:944 (2007). After treatment with the corresponding agents for the indicated time, Xbp-1 mRNA splicing was determined by RT-PCR. Unspliced (u) and spliced (s) Xbp1-mRNA products are indicated and serve as a measure of UPR activation through Ire1.
Exemplary compounds were assayed for their effect on UPR. Results are set forth in FIGS. 18-19 and in the table below.

[2] = system: XBP1-GFP reporter in Hek293-FT cells; assay: FACS on Hek293-FT cells transfected with XBP1-GFP reporter; format: cell-based; settings: treated for 24 hrs
Procedure: Exemplary compounds were assayed and the results are set froth in the table below.

Ire1 = assay: Summary statement of Ire1 activation or inhibition (assay not specified)

| increase of specific RNase activity by co-factor (Ire1KR32; HP21 substrate, Ire1KR, Ire1KR24, Ire1KR32 (FIG. 1D)) | RNA cleavage (yIre1 activation) (yIre1) | Molecule | effect of EDTA (chelation of magnesium) on RNase activity of Ire1KR32 stimulated by the substance (Ire1KR32; FIG. 3F) | % splicing mRNA XBP-I Average ([1]; Tm 0.3 ug/ml + compound 2 μM) [%] | % splicing mRNA XBP-I Average ([1]; compound 2 μM) [%] | % splicing mRNA XBP-I Average ([1]; compound 10 μM) [%] | % fold induction to Control ([2]; Tm 0.3 ug/ml + compound 2 uM) [%] | Mean fluorescence ([2]; Tm 0.3 ug/ml + compound 2 uM) | % fold induction to Control ([2]; compound 2 uM) [%] | Mean fluorescence ([2]; compound 2 uM) | inhibition of Ire1 (Ire1) | in vivo activation of Ire1 [1] | activation of Ire1 (Ire1) | % splicing mRNA XBP-I Average ([1]; Tm alone) [%] | % fold induction to Control ([2]; Tm alone) [%] | Mean fluorescence ([2]; Tm alone) |
| --- | --- | --- | --- | --- | --- | --- | --- | --- | --- | --- | --- | --- | --- | --- | --- | --- |
| – | 0.00232 | OCCc1ccc(Nc2nccc(Nc3cc(C4CCCCC4)n[nH]3)n2)cc1 [APY33] | – | 8 | 8 | 18 | 49 | 3613 | 16 | 2811 | significant inhibition | – | – | – | – | – |
| – | 0.0014 | N#CCc1ccc(Nc2nccc(Nc3cc(C4CCCCC4)n[nH]3)n2)cc1 [APY34] | – | 7 | 12 | 34 | 78 | 4318 | 17 | 2836 | – | – | – | – | – | – |
| – | 0.006034 | N#CCc1ccc(Nc2nccc(Nc3cc(C4CCCC4)n[nH]3)n2)cc1 [APY67] | – | 21 | 20 | 66 | −6 | 2289 | −4 | 2326 | – | – | significant activation | – | – | – |
| – | 0.00175 | CC(=O)Nc1ccc(Nc2nccc(Nc3cc(C4CCCC4)n[nH]3)n2)cc1 [APY75] | – | 44 | 9 | 17 | – | – | – | – | – | – | – | – | – | – |
| – | 0.03994 | OCCc1ccc(Nc2nccc(Nc3cc(C4CCCC4)n[nH]3)n2)cc1 [APY76] | – | 11 | 23 | 39 | – | – | – | – | – | significant in vivo activation | significant activation | – | – | – |
| – | 0.006479 | N#CCc1ccc(Nc2nccc(Nc3cc(C4CCC4)n[nH]3)n2)cc1 [APY77] | – | 37 | 21 | 37 | 9 | 2648 | 6 | 2570 | – | – | significant activation | – | – | – |

The next lines start with the molecule.

| Molecule | increase of specific RNase activity by co-factor (Ire1KR32; HP21 substrate, Ire1KR, Ire1KR24, Ire1KR32 (FIG. 1D)) | RNA cleavage (yIre1 activation) (yIre1) | effect of EDTA (chelation of magnesium) on RNase activity of Ire1KR32 stimulated by the substance (Ire1KR32; FIG. 3F) | % splicing mRNA XBP-I Average ([1]; Tm 0.3 ug/ml + compound 2 μM) [%] | % splicing mRNA XBP-I Average ([1]; compound 2 μM) [%] | % splicing mRNA XBP-I Average ([1]; compound 10 μM) [%] | % fold induction to Control ([2]; Tm 0.3 ug/ml + compound 2 uM) [%] | Mean fluorescence ([2]; Tm 0.3 ug/ml + compound 2 uM) | % fold induction to Control ([2]; compound 2 uM) [%] | Mean fluorescence ([2]; compound 2 uM) | inhibition of Ire1 (Ire1) | in vivo activation of Ire1 [1] | activation of Ire1 (Ire1) | % splicing mRNA XBP-I Average ([1]; Tm alone) [%] | % fold induction to Control ([2]; Tm alone) [%] | Mean fluorescence ([2]; Tm alone) |
| --- | --- | --- | --- | --- | --- | --- | --- | --- | --- | --- | --- | --- | --- | --- | --- | --- |
| Nc1ncnc2c1ncn2[C@@H]1O[C@H](COP(=O)(O)OP(=O)(O)O)[C@@H](O)[C@H]1O [ADP, reference compound] | two orders of magnitude | – | decreased by greater than an order of magnitude | – | – | – | – | – | – | – | – | – | – | – | – | – |
| CC(=O)Nc1ccc(Nc2nccc(Nc3cc(C4CCCCC4)n[nH]3)n2)cc1 [APY36] | – | 0.000897 | – | 16 | 10 | 19 | – | – | – | – | – | – | – | – | – | – |
| N#CCc1ccc(Nc2nc(Nc3cc(C4CC4)n[nH]3)c3ccccc3n2)cc1 [APY65] | – | 0.005304 | – | 29 | 22 | 51 | – | – | – | – | – | significant in vivo activation | significant activation | – | – | – |
| Cc1cc(Nc2cc(C3CC3)n[nH]2)nc(Nc2ccc(CC#N)cc2)n1 [APY69] | – | 0.06355 | – | 36 | 23 | 40 | 16 | 2805 | 18 | 2864 | – | significant in vivo activation | significant activation | – | – | – |
| N#CCc1ccc(Nc2nc(Nc3cc(C4CCCC4)n[nH]3)c3ccccc3n2)cc1 [APY78] | – | 0.002028 | – | 11 | 11 | 27 | – | – | – | – | – | – | – | – | – | – |
| N#CCc1ccc(Nc2nc(Nc3cc(C4CCCCC4)n[nH]3)c3ccccc3n2)cc1 [APY79] | – | 0.000626 | – | – | – | – | – | – | – | – | – | – | – | – | – | – |
| Cc1cc(Nc2cc(C3CCCC3)n[nH]2)nc(Nc2ccc(CC#N)cc2)n1 [APY80] | – | 0.001022 | – | 9 | 12 | 28 | – | – | – | – | significant inhibition | – | – | – | – | – |
| N#CCc1ccc(Nc2nc(Nc3cc(C4CCC4)n[nH]3)c3ccccc3n2)cc1 [APY82] | – | 0.002172 | – | 27 | 29 | 27 | – | – | – | – | – | significant in vivo activation | – | – | – | – |
| Cc1cc(Nc2cc(C3CCC3)n[nH]2)nc(Nc2ccc(CC#N)cc2)n1 [APY83] | – | 0.02693 | – | 29 | 21 | 55 | – | – | – | – | – | significant in vivo activation | significant activation | – | – | – |
| N#CCc1ccc(Nc2nccc(Nc3cc(-c4cccs4)n[nH]3)n2)cc1 [APY84] | – | 0.004672 | – | 12 | 21 | 60 | – | – | – | – | significant inhibition | significant in vivo activation | – | – | – | – |
| Cc1ccc(-c2cc(Nc3nc(Nc4ccc(CC#N)cc4)nc4ccccc34)[nH]n2)s1 [APY85] | – | 0.003287 | – | 13 | 15 | 14 | – | – | – | – | – | – | significant activation | – | – | – |
| tunicamycin [Tm, reference compound] | – | – | – | – | – | – | – | – | – | – | – | – | – | 78 | 59 | 3869 |
